Earlier results, collected in patent US20010007758A1, “Treatment of multiple sclerosis using COP-1 and Th2-enhancing cytokines” (Autoimmune, Inc., priority 1998, published 2001).

How the values were obtained:
[1] = tested on: MBP-specific T cells; details: experiments in mice
[2] = tested on: MS; details: daily subcutaneous injections of 20 mg
[3] = tested on: T suppressor cells specific for MBP
[4] = tested on: EAE; details: oral administration to rats
[5] = tested on: T cell; details: oral administration to rats
[6] = tested on: experimental allergic encephalitis (EAE); details: in vivo
[7] = tested on: EAE; details: oral feeding; EAE induced with 0.4 mg mouse MBP; monitored 35 days

glatiramer acetate [COP-1]
effect on MBP-specific T cells involved in destruction of central nervous system tissue in EAE [1]: specifically inhibits
Expanded Disability Status Scale [2]: significant improvement
annualized relapse rate, lower in treated patients [2]: 29%
proportion of patients that did not have a relapse in clinical disease [2]: 34%
induction of T suppressor cells specific for MBP [3]: induce T suppressor cells
severity and incidence of EAE [4]: suppressed
T cell proliferative responses [5]: inhibited
TH1 cytokine production [5]: inhibited
encephalitogenicity (causes EAE when injected) [6]: not encephalitogenic

B1: IL-4: interleukin-4, a Th2-enhancing cytokine (protein, UniProt P05112 25-153, looked up)
Interleukin-4: HKCDITLQEIIKTLNSLTEQKTLCTELTVTDIFAASKNTTEKETFCRAATVLRQFYSHHEKDTRCLGATAQQFHRHKQLIRFLKRLDRNLWGLAGLNSCPVKEANQSTLENFLERLKTIMREKYSKCSS
delay in disease onset [7]: 21 days

B2: MBP: myelin basic protein, a component of myelin in the central nervous system (protein, UniProt P02686 1-304, looked up)
Myelin basic protein: MGNHAGKRELNAEKASTNSETNRGESEKKRNLGELSRTTSEDNEVFGEADANQNNGTSSQDTAVTDSKRTADPKNAWQDAHPADPGSRPHLIRLFSRDAPGREDNTFKDRPSESDELQTIQEDSAATSESLDVMASQKRPSQRHGSKYLATASTMDHARHGFLPRHRDTGILDSIGRFFGGDRGAPKRGSGKDSHHPARTAHYGSLPQKSHGRTQDENPVVHFFKNIVTPRTPPPSQGKGRGLSLSRFSWGAEGQRPGFGYGGRASDYKSAHKGFKGVDAQGTLSKIFKLGGRDSRSGSPMARR
delay in disease onset [7]: 22 days
encephalitogenicity (causes EAE when injected) [6]: highly encephalitogenic
